According to PubChem BioAssay AID1918942 (Molecular Pharmacology Branch, DTP, NCI, 2023):

Tested on: 743489-274-T-PDC complex spheroid viability
Assay: Anticancer human tumor 743489-274-T-PDC patient-derived renal cell carcinoma cell line growth inhibition
Conditions: for IC50: curve of first compound; for viability, T/C: stronger effect = lower value
Method in brief: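 Multicellular complex spheroids of tumor cells with human endothelial cells (HUVEC) and mesenchymal stem cells; the LSD1 inhibitor iadademstat was combined with standard-of-care or investigational agents. Top concentration at or near clinical Cmax, half-log dilutions; final DMSO ≤0.25%.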

[1] = second compound 0.1 µM, first compound 0.0316 µM
[2] = second compound 0.1 µM, first compound 0.1 µM
[3] = second compound 0.1 µM, first compound 0.316 µM
[4] = second compound 0.1 µM, first compound 1 µM
[5] = second compound 0.1 µM, first compound 3.16 µM
[6] = second compound 0.1 µM, first compound 10 µM
[7] = second compound 0.316 µM, first compound 0.0316 µM
[8] = second compound 0.316 µM, first compound 0.1 µM
[9] = second compound 0.316 µM, first compound 0.316 µM
[10] = second compound 0.316 µM, first compound 1 µM
[11] = second compound 0.316 µM, first compound 3.16 µM
[12] = second compound 0.316 µM, first compound 10 µM
[13] = second compound 1 µM, first compound 0.0316 µM
[14] = second compound 1 µM, first compound 0.1 µM
[15] = second compound 1 µM, first compound 0.316 µM
[16] = second compound 1 µM, first compound 1 µM
[17] = second compound 1 µM, first compound 3.16 µM
[18] = second compound 1 µM, first compound 10 µM
[19] = second compound 3.16 µM, first compound 0.0316 µM
[20] = second compound 3.16 µM, first compound 0.1 µM
[21] = second compound 3.16 µM, first compound 0.316 µM
[22] = second compound 3.16 µM, first compound 1 µM
[23] = second compound 3.16 µM, first compound 3.16 µM
[24] = second compound 3.16 µM, first compound 10 µM
[25] = second compound 10 µM, first compound 0.0316 µM
[26] = second compound 10 µM, first compound 0.1 µM
[27] = second compound 10 µM, first compound 0.316 µM
[28] = second compound 10 µM, first compound 1 µM
[29] = second compound 10 µM, first compound 3.16 µM
[30] = second compound 10 µM, first compound 10 µM
[31] = second compound 0.1 µM, first compound 0.00316 µM
[32] = second compound 0.1 µM, first compound 0.01 µM
[33] = second compound 0.316 µM, first compound 0.00316 µM
[34] = second compound 0.316 µM, first compound 0.01 µM
[35] = second compound 1 µM, first compound 0.00316 µM
[36] = second compound 1 µM, first compound 0.01 µM
[37] = second compound 3.16 µM, first compound 0.00316 µM
[38] = second compound 3.16 µM, first compound 0.01 µM
[39] = second compound 10 µM, first compound 0.00316 µM
[40] = second compound 10 µM, first compound 0.01 µM
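Also: spheroids exposed to compounds for 7 days before readout.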
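For viability, T/C in this document: 100% = DMSO vehicle control wells.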

CC(C)c1c(-c2ccccc2)nc2c(C#N)c[nH]n2c1=O + NC1CCC(NC2CC2c2ccccc2)CC1
IC50 (second compound 0.1 µM): > 10000 nM | IC50 (second compound 0.316 µM): > 10000 nM | IC50 (second compound 1 µM): > 10000 nM | IC50 (second compound 3.16 µM): > 10000 nM | IC50 (second compound 10 µM): > 10000 nM | viability, T/C [1]: 97.2% | viability, T/C [2]: 115% | viability, T/C [3]: 104% | viability, T/C [4]: 127% | viability, T/C [5]: 99.9% | viability, T/C [6]: 104% | viability, T/C [7]: 106% | viability, T/C [8]: 99.3% | viability, T/C [9]: 126% | viability, T/C [10]: 108% | viability, T/C [11]: 108% | viability, T/C [12]: 104% | viability, T/C [13]: 119% | viability, T/C [14]: 120% | viability, T/C [15]: 100% | viability, T/C [16]: 111% | viability, T/C [17]: 105% | viability, T/C [18]: 114% | viability, T/C [19]: 111% | viability, T/C [20]: 111% | viability, T/C [21]: 114% | viability, T/C [22]: 119% | viability, T/C [23]: 98.8% | viability, T/C [24]: 112% | viability, T/C [25]: 118% | viability, T/C [26]: 121% | viability, T/C [27]: 130% | viability, T/C [28]: 121% | viability, T/C [29]: 120% | viability, T/C [30]: 104%

CC1COCCN1c1cc(-c2ccnn2C)c2ccnc(-c3ccn[nH]3)c2n1 (stereo not given) + NC1CCC(NC2CC2c2ccccc2)CC1
IC50 (second compound 0.1 µM): > 1000 nM | IC50 (second compound 0.316 µM): > 1000 nM | IC50 (second compound 1 µM): > 1000 nM | IC50 (second compound 3.16 µM): > 1000 nM | IC50 (second compound 10 µM): > 1000 nM | viability, T/C [31]: 111% | viability, T/C [32]: 109% | viability, T/C [1]: 107% | viability, T/C [2]: 92.6% | viability, T/C [3]: 81.6% | viability, T/C [4]: 64% | viability, T/C [33]: 126% | viability, T/C [34]: 110% | viability, T/C [7]: 114% | viability, T/C [8]: 87.1% | viability, T/C [9]: 83% | viability, T/C [10]: 62.7% | viability, T/C [35]: 109% | viability, T/C [36]: 128% | viability, T/C [13]: 118% | viability, T/C [14]: 98% | viability, T/C [15]: 90.2% | viability, T/C [16]: 59.5% | viability, T/C [37]: 122% | viability, T/C [38]: 138% | viability, T/C [19]: 110% | viability, T/C [20]: 101% | viability, T/C [21]: 84.5% | viability, T/C [22]: 76.1% | viability, T/C [39]: 131% | viability, T/C [40]: 117% | viability, T/C [25]: 129% | viability, T/C [26]: 105% | viability, T/C [27]: 88.9% | viability, T/C [28]: 71.7%

COc1ccc([C@@H](O)c2cc(-c3ncnc4cc(N5CCOCC5)ccc34)c(F)cc2Cl)nn1 + NC1CCC(NC2CC2c2ccccc2)CC1
IC50 (second compound 0.1 µM): 2810 nM | IC50 (second compound 0.316 µM): 2310 nM | IC50 (second compound 1 µM): 1670 nM | IC50 (second compound 3.16 µM): 1850 nM | IC50 (second compound 10 µM): 1900 nM | viability, T/C [1]: 110% | viability, T/C [2]: 109% | viability, T/C [3]: 87.2% | viability, T/C [4]: 70.9% | viability, T/C [5]: 47.1% | viability, T/C [6]: 34.9% | viability, T/C [7]: 125% | viability, T/C [8]: 121% | viability, T/C [9]: 99% | viability, T/C [10]: 65.9% | viability, T/C [11]: 46.9% | viability, T/C [12]: 18.6% | viability, T/C [13]: 125% | viability, T/C [14]: 112% | viability, T/C [15]: 101% | viability, T/C [16]: 61.6% | viability, T/C [17]: 34.1% | viability, T/C [18]: 19.4% | viability, T/C [19]: 124% | viability, T/C [20]: 123% | viability, T/C [21]: 92.9% | viability, T/C [22]: 62.2% | viability, T/C [23]: 41.6% | viability, T/C [24]: 17% | viability, T/C [25]: 117% | viability, T/C [26]: 120% | viability, T/C [27]: 102% | viability, T/C [28]: 66.1% | viability, T/C [29]: 38.2% | viability, T/C [30]: 26.4%

O=C(C=Cn1cnc(-c2cc(C(F)(F)F)cc(C(F)(F)F)c2)n1)NNc1cnccn1 + NC1CCC(NC2CC2c2ccccc2)CC1
IC50 (second compound 0.1 µM): > 1000 nM | IC50 (second compound 0.316 µM): > 1000 nM | IC50 (second compound 1 µM): > 1000 nM | IC50 (second compound 3.16 µM): > 1000 nM | IC50 (second compound 10 µM): > 1000 nM | viability, T/C [31]: 102% | viability, T/C [32]: 112% | viability, T/C [1]: 113% | viability, T/C [2]: 114% | viability, T/C [3]: 102% | viability, T/C [4]: 96% | viability, T/C [33]: 95% | viability, T/C [34]: 107% | viability, T/C [7]: 131% | viability, T/C [8]: 106% | viability, T/C [9]: 97.8% | viability, T/C [10]: 81.3% | viability, T/C [35]: 103% | viability, T/C [36]: 119% | viability, T/C [13]: 130% | viability, T/C [14]: 113% | viability, T/C [15]: 91.6% | viability, T/C [16]: 81.8% | viability, T/C [37]: 112% | viability, T/C [38]: 121% | viability, T/C [19]: 140% | viability, T/C [20]: 116% | viability, T/C [21]: 91.8% | viability, T/C [22]: 82.5% | viability, T/C [39]: 120% | viability, T/C [40]: 124% | viability, T/C [25]: 126% | viability, T/C [26]: 113% | viability, T/C [27]: 102% | viability, T/C [28]: 95.9%
